Experimental findings from publication PMC9606187, “Dual HDAC/BRD4 Inhibitors Relieves Neuropathic Pain by Attenuating Inflammatory Response in Microglia After Spared Nerve Injury” (Neurotherapeutics, 2022) are described below.

Data set [1] deals with MAPK p38 (phosphorylated). In words: Western blot of lumbar spinal cord, p-p38. Format: in vivo, mice. As to conditions: SNI ipsilateral side, day 7 and 14. As to the method: (§1) The lumbar spinal cord was removed 7 and 14 days after surgery and 90 min after the intranasal administration of SUM52, corresponding to the peack of the effect. Samples (n = 4 for groups) were homogenized in a homogenization buffer and processed as previously described. Protein samples (40 µg of protein/sample) were separated on 10% SDS-PAGE and transferred onto nitrocellulose membranes (120 min at 100 V) using standard procedures. Membranes were blocked in PBST (PBS containing 0.1% Tween) containing 5% nonfat dry milk for 120 min. […] Blots were then extensively washed and developed using enhanced chemiluminescence detection system (Pierce, Milan, Italy) and signal intensity (pixels/mm^2) quantified (ImageJ, NIH). […] For each sample, the signal intensity was normalized to that of total protein stained by Ponceau S and the acquired images were quantified using Image Lab software. […]
(In western blotting, separated proteins are transferred to a membrane and probed.)

Data set [2] concerns the target T1, Recombinant Human Bromodomain containing protein 4, bromodomain 2 (BRD4-BD2) (Homo sapiens, UniProt O60885).
T1 construct: purchased Reaction Biology (RBC) RD-11–141; host or cells: E. coli
In words: AlphaScreen bromodomain binding assay (Reaction Biology), BRD4-2. As to the method:
(§2) The reader assay is a binding assay using AlphaScreen technology […] assay and was performed by Reaction Biology (www.reactionbiology.com). The biotinylated peptide binding to the reader domain of His-tagged protein is monitored by the singlet oxygen transfer from the Streptavidin-coated donor beads to the AlphaScreen Ni-chelate acceptor beads.
(§3) Reaction buffer: 50 mM Hepes, pH7.5, 100 mM NaCl, 0.05% CHAPS, 0.1% BSA, and 1% DMSO (the final DMSO concentration may differ depending on compound stock and test concentrations).
(§4) Bromodomain: BRD4-1: RBC Cat# RD-11–140: Recombinant Human Bromodomain containing protein 4, bromodomain 1 (aa 44–170; Genbank Accession # NM_058243), expressed in E. coli with N-terminal His-tag. MW = 17.8 kDa; BRD4-2: RBC Cat# RD-11–141: Recombinant Human Bromodomain containing protein 4, bromodomain 2 (aa 349–460;Genbank Accession # NM_058243), expressed in E. coli with N-terminal His-tag. MW = 15.7 kDa. Ligand (C-term-Biotin): Histone H4 peptide (1–21) K5/8/12/16Ac-Biotin. Detection beads: PerkinElmer: Donor beads: Streptavidin-coated donor beads; Acceptor beads: AlphaScreen Ni acceptor beads.
Reaction procedure: • Deliver 2.5X BRD in wells of reaction plate except No BRD control wells. Add buffer instead. • Deliver compounds in 100% DMSO into the BRD mixture by Acoustic technology (Echo550; nanoliter range). Spin down and pre-incubation for 30 min. • Deliver 5X Ligand. Spin and shake. • Incubate for 30 min at room temperature with gentle shaking. • Deliver 5X donor beads. Spin and shake. • Deliver 5X acceptor beads. Spin and shake. Then gentle shaking in the dark for 60 min. • Alpha measurement (Ex/Em = 680/520–620 nm) in Enspire.
A general note: In Alpha technology, singlet oxygen from a donor bead excites a nearby acceptor bead.

Data set [3] has as its target T2, Recombinant Human Bromodomain containing protein 4, bromodomain 1 (BRD4-BD1) (Homo sapiens, UniProt O60885).
T2 construct: bromodomain 1 (aa 44–170); purchased Reaction Biology (RBC) RD-11–140; host or cells: E. coli
In words: AlphaScreen bromodomain binding assay (Reaction Biology), BRD4-1. Here is the method:
as §2, §3, §4
Reaction procedure: • Deliver 2.5X BRD in wells of reaction plate except No BRD control wells. Add buffer instead. • Deliver compounds in 100% DMSO into the BRD mixture by Acoustic technology (Echo550; nanoliter range). […]

Data set [4] relates to BRD4. The data set can be described thus: Western blot of lumbar spinal cord, BRD4. Format: in vivo, mice. As to conditions: SNI ipsilateral side, day 7 and 14 post-surgery, i.n. Here is the method: as §1
Data set [5] relates to HDAC1. In words: Western blot of lumbar spinal cord, HDAC1. Format: in vivo, mice. The following applies: SNI ipsilateral side, day 7 and 14 post-surgery, i.n. Here is the method:
as §1

Data set [6] is described as follows: Intrinsic fluorescence of the compound in spinal cord after i.n. delivery. The format is in vivo, mice. An excerpt:
On postsurgical day 14, animals were perfused transcardially with 4% paraformaldehyde in 0.1 M phosphate buffer (PBS, pH 7.4). After perfusion, lumbar spinal cord was quickly removed and processed as previously described. Four animals per groups were used for this analysis. […] Primary antibody used was IBA1 (1:100; Santa Cruz Biotechnology Cat# sc-32725, RRID:AB_667733). […] A Leica DM6000B fluorescence microscope equipped with a DFC350FX digital camera with appropriate excitation and emission filters for each fluorophore was used to acquire representative images. […] The immunofluorescence intensity was calculated by ImageJ (Wayne Rasband, National Institute of Health, USA).
Co-localization of two different labels was measured using EzColocalization plugin (ImageJ). The extent of co-localization was determined by calculating the Mander’s overlap coefficient (MOC) and the Pearson’s correlation coefficient (PCC). […] PCC quantify the correlation between individual fluorophores considering their intensities. PCC is characterized by determined value range: −1, which indicate anticolocalization; +1, which indicates colocalization; 0, which indicates there is no colocalization.

Data set [7] relates to SNI mice. The data set can be described thus: Observation of sedation or motor dysfunction. The format is in vivo. As to conditions: single administration 50 µM i.n.

For orientation: IC50 means the point on the concentration scale where inhibition reaches its midpoint.

For `Cc1nnc2n1-c1ccccc1C(c1ccccc1)=N[C@H]2CC(=O)NCCCCCCC(=O)NO` [SUM52, (S)-N-hydroxy-7-(2-(1-methyl-6-phenyl-4H-benzo[f][1,2,4]triazolo[4,3-a][1,4]diazepin-4-yl)acetamido)heptanamide], in data set [1], the “phosphorylation of MAPK p38” value is “drastically reduced”. The IC50 in data set [2] came out at 10.5 nM; in data set [3] it was 758 nM. The “preference between BRD4-BD1 and BRD4-BD2 domains” value in data set [2] (BRD4-BD1 vs BRD4-BD2) is “preferential interaction for BRD4-BD2”. In data set [4], the “spinal BRD4 protein expression” value is on record as “restored both epigenetic enzyme levels to control values”. The “spinal HDAC1 protein expression” value in data set [5] is given as “restored both epigenetic enzyme levels to control values”. Also, the “distribution to spinal cord (intrinsic fluorescence)” value in data set [6] (after i.n. delivery, vs vehicle-treated mice) was “able to reach the spinal cord and diffuse into the tissue”. In addition, the “intrinsic fluorescence in microglial cells” value in data set [6] (spinal cord sections of SNI mice, IBA1 co-staining) is “detected in IBA1 positive microglial cells”. Moreover, the “apparent sedation or motor dysfunction” value in data set [7] is on record as “No animal showed apparent sedation or motor dysfunction”.
